Test results taken from US20220354957A1, “PEPTIDES TARGETING MACROPHAGES, AND CONJUGATES, COMPOSITIONS, AND USES THEREOF” (Twinpig Biolab, Inc., priority 2021, published 2022).

Tests used:
[1] = tested on: murine melanoma cells (B16F10 cell line); assay: Mouse model of melanoma (subcutaneous B16F10); format: in vivo; details: vs PBS group
Excerpt: (§1) BALB/c and C57BL/6 (B6) wild-type mice were purchased from DBL. For the subcutaneous tumor model of melanoma and prostate cancer, CT26 (3×10^5 cells/mouse), B16F10 (1×10^6 cells/mouse) and TRAMP-C2 cells (1×10^6 cells/mouse) were mixed with Matrigel matrix (Corning) and inoculated subcutaneously into the right flank of the mice, and 4T1 (1×10^5 cells/mouse) cells mixed with Matrigel matrix and inoculated into a 4th mammary fat pad of the mice. TAMpepK, and MpepK peptides (200 nmol/kg) were injected intraperitoneally every 3 days, beginning at day 7 after tumor inoculation, and tumor volume was measured by electronic caliper. All tumor tissues were harvested after the end of the study and tumor weight was measured by an electronic balance.

M2-like TAMs = assay: FACS of tumor macrophages and CD8+ T cells in mouse model of melanoma; format: in vivo; details: vs PBS group
Excerpt: as §1
THP-1 cells were differentiated into macrophages by a 24 h incubation with 100 nM PMA and polarized in M2 macrophages by incubation with 20 ng/ml of IL-4 and 20 ng/ml of IL-13 for 72 h. Polarized cells were treated with 50 nM TAMpep and fragments of TAMpep or Mpep and alanine library of Mpep conjugated with FITC for 1 h. To test change of macrophage population in melanoma tissue, the single cells were isolated from tumor tissue through a 40 μm nylon mesh strainer after dissociation by DNase I (1 U/mL) and collagenase D (1 mg/ml). Cells were detected on BD FACSCalibur and BD FACSCantoII instruments and analyzed by FlowJo software.

PC3 cells [2] = assay: Proliferation and migration of prostate cancer cells by conditioned medium of macrophages; format: cell-based, human; details: conditioned media of M2 macrophages and M2-like TAMs pretreated with peptide
Experimental: (§2) To obtain conditioned media of tumor (TCM), PC3 cells were seeded at 2×10^5 cells/well in culture medium in 24-well plates (Corning Inc). After 24 hours, the medium was changed to serum-free RPMI1640 medium and the cells were incubated for 24 hours. For conditioned media of macrophages, THP-1 cells were seeded at 2×10^5 cells/well in culture medium in 24-well plates (Corning Inc) and incubated with 100 nM PMA for 24 h. Cells were polarized into M0, M1, and M2 macrophages or TAM macrophages by TCM and changed to serum-free RPMI1640 medium. After 24 hours, the medium was changed to serum-free RPMI1640 medium and the cells were incubated for 24 hours. Supernatants were harvested and clarified with syringe filters (0.2 μm, Milipore). Supernatants of PC3 cells were named tumor-conditioned medium (TCM).
Migration of prostate cancer and melanoma cells was assessed with wound healing assays. PC3 and Sk-Mel-28 cells were seeded at 2×10^5 cells/well in 24-well plates and cultured in RPMI1640 with 10% FBS. When the cells reached confluence, they were wounded by scraping across the surface of the well with a sterile micropipette tip. […] Wound areas were measured with ImageJ software (NCI, Bethesda, Md., USA). The percent of each wounded area filled by cell migration was calculated as: (mean wounded breadth—mean remaining breadth)/mean wounded breadth×100.

PC3 cells [3] = assay: Invasion assay of prostate cancer cells with conditioned medium of macrophages; format: cell-based, human; details: conditioned medium of M2 macrophages and M2-like TAMs pretreated with peptide
Experimental: as §2, with “Supernatants of PC3 cells were named tumor-conditioned medium (TCM).” left out
The invasiveness of prostate cancer cells treated with conditioned media of macrophages was tested according to the manufacturer's instructions for the invasion assay (Corning Inc.) with slight modifications. Briefly, invasiveness was assessed using 24-well plates fitted with polycarbonate 8-μm pore membrane inserts (Corning Inc.) pre-coated with Matrigel (200-300 μg/mL) for 2 hours at 37° C. […] Five randomly selected fields per membrane were counted under a light microscope (Olympus). The invasion index was calculated from the number of cells that migrated in response to conditioned medium compared with the control without conditioned medium.

[4] = B16F10 in C57BL6J mice, 200 nmol/kg i.p. every 3 days

CC[C@H](C)[C@H](NC(=O)[C@H](CC(C)C)NC(=O)[C@H](C)NC(=O)[C@@H]1CCCN1C(=O)[C@H](CC(C)C)NC(=O)CNC(=O)[C@@H](NC(=O)[C@@H](NC(=O)[C@H](CC(C)C)NC(=O)[C@@H](NC(C)=O)C(C)C)[C@@H](C)O)[C@@H](C)O)C(=O)N[C@@H](CO)C(=O)N[C@@H](Cc1c[nH]c2ccccc12)C(=O)N[C@H](C(=O)N[C@@H](CCCCN)C(=O)N[C@@H](CCCNC(=N)N)C(=O)N[C@@H](CCCCN)C(=O)N[C@@H](CCCNC(=N)N)C(=O)N[C@@H](CCC(N)=O)C(=O)N[C@@H](CCC(N)=O)C(=O)NCC(=O)NCC(=O)NCC(=O)NCC(=O)N[C@@H](CO)C(=O)N[C@H](CCCCN)C(=O)N[C@H](CC(C)C)C(=O)N[C@H](C)C(=O)N[C@H](CCCCN)C(=O)N[C@H](CC(C)C)C(=O)N[C@H](C)C(=O)N[C@H](CCCCN)C(=O)N[C@H](CCCCN)C(=O)N[C@H](CC(C)C)C(=O)N[C@H](C)C(=O)N[C@H](CCCCN)C(=O)N[C@H](CC(C)C)C(=O)N[C@H](C)C(=O)N[C@H](CCCCN)C(=O)O)[C@@H](C)CC [MpepK]
tumor volume [1, 4]: reduced | tumor weight [1, 4]: reduced | survival rate ([1]; B16F10 melanoma model): extended | exhaustion markers, such as PD-1 and LAGS, in CD8+ T cells (M2-like TAMs; melanoma model): significantly reduced | M1-like TAMs (F4/80+ and CD86+ cells) (M2-like TAMs; melanoma tumor tissue): no change | M1/M2 ratio (M2-like TAMs; melanoma tumor tissue): significantly increased | M2-like TAMs (F4.80+ and CD206+ cells) (M2-like TAMs; melanoma tumor tissue): reduced | proliferation of PC3 cells (PC3 cells [2]): significantly reduced | migration of PC3 cells (PC3 cells [2]; wound healing): significantly reduced | invasion of PC3 cells (PC3 cells [3]): significantly reduced
